Experimental data as given in patent publication US9328374B2, “Selective culture medium and method for detecting carbapenem-resistant bacteria in a test sample” (Institut National de la Sante et de la Recherche Medicale …, priority 2011, dated 2016).

Key:
E. cloacae = assay: MIC of imipenem, ertapenem and meropenem; format: cell-based, Enterobacter cloacae
P. rettgeri = assay: MIC of imipenem, ertapenem and meropenem; format: cell-based, Providencia rettgeri
C. freundii = assay: MIC of imipenem, ertapenem and meropenem; format: cell-based, Citrobacter freundii
C. koseri = assay: MIC of imipenem, ertapenem and meropenem; format: cell-based
E. aerogenes = assay: MIC of imipenem, ertapenem and meropenem; format: cell-based, Enterobacter aerogenes
S. typhimurium = assay: MIC of imipenem, ertapenem and meropenem; format: cell-based
enterobacterial isolates = assay: MIC of imipenem, ertapenem and meropenem (groups of isolates, other species); format: cell-based, Enterobacteriaceae

`C[C@@H](O)[C@H]1C(=O)N2C(C(=O)O)=C(S[C@@H]3CN[C@H](C(=O)N(C)C)C3)[C@H](C)[C@H]12` [MEM, meropenem] gave an MIC (E. cloacae; E. cloacae 501, OXA-48 + TEM-1 + CTX-M-15) of 1.5 µg/mL, an MIC (E. cloacae; E. cloacae 1012, TEM-1 + SHV-12, non-carbapenemase producer) of 0.016 µg/mL and an MIC (E. cloacae; E. cloacae 1019, TEM-1, non-carbapenemase producer, overexpressed AmpC) of 0.094 µg/mL. For the same compound, the MIC (E. cloacae; E. cloacae 1027, TEM-1 + CTX-M-15, non-carbapenemase producer) was 0.016 µg/mL, the MIC (E. cloacae; E. cloacae 1072, TEM-1 + OXA-1, non-carbapenemase producer, overexpressed AmpC) was 0.064 µg/mL and the MIC (E. cloacae; E. cloacae 5434 (wild type)) was 0.032 µg/mL. It also gave an MIC (E. cloacae; E. cloacae 5434, (wild type), non-carbapenemase producer) of 0.032 µg/mL, an MIC (E. cloacae; E. cloacae 7725, (wild type), non-carbapenemase producer) of 0.012 µg/mL and an MIC (E. cloacae; E. cloacae 7746, (wild type), non-carbapenemase producer) of 0.032 µg/mL. For the same compound, the MIC (E. cloacae; E. cloacae 10111 (TEM-1 + CTX-M-15)) was 0.094 µg/mL, the MIC (E. cloacae; E. cloacae 10111, TEM-1 + CTX-M-15, non-carbapenemase producer, overexpressed AmpC) was 0.094 µg/mL and the MIC (E. cloacae; E. cloacae 1008029, VIM-1+ CTX-M-3) was >32 µg/mL. The MIC (E. cloacae; E. cloacae 1008079, IMP-1) was >32 µg/mL, the MIC (E. cloacae; E. cloacae 1008187, IMP-1 + CTX-M-15) was 4 µg/mL and the MIC (E. cloacae; E. cloacae (KPC-2)) was 2 µg/mL. The MIC (E. cloacae; E. cloacae ARF (overexpressed AmpC)) was 0.12 µg/mL, the MIC (E. cloacae; E. cloacae ARF, Overexpressed AmpC, non-carbapenemase producer) was 0.12 µg/mL and the MIC (E. cloacae; E. cloacae AZA (overexpressed AmpC)) was 0.12 µg/mL. It also gave an MIC (E. cloacae; E. cloacae AZA, Overexpressed AmpC, non-carbapenemase producer) of 0.12 µg/mL, an MIC (E. cloacae; E. cloacae BEU, OXA-48 + TEM-1 + CTX-M-15 + SHV-12) of 0.5 µg/mL and an MIC (E. cloacae; E. cloacae BLA (overexpressed AmpC)) of 0.12 µg/mL. The MIC (E. cloacae; E. cloacae BLA, Overexpressed AmpC, non-carbapenemase producer) was 0.12 µg/mL, the MIC (E. cloacae; E. cloacae CFVL, KPC-2 + TEM-3) was 1 µg/mL and the MIC (E. cloacae; E. cloacae CLO (CTX-M-15)) was 0.12 µg/mL. It also gave an MIC (E. cloacae; E. cloacae CLO, CTX-M-15, non-carbapenemase producer) of 0.12 µg/mL, an MIC (E. cloacae; E. cloacae CON (overexpressed AmpC)) of 0.12 µg/mL and an MIC (E. cloacae; E. cloacae CON, Overexpressed AmpC, non-carbapenemase producer) of 0.25 µg/mL. The MIC (E. cloacae; E. cloacae CVB (VEB-1)) was 0.12 µg/mL, the MIC (E. cloacae; E. cloacae CVB, VEB-1, non-carbapenemase producer) was 0.12 µg/mL and the MIC (E. cloacae; E. cloacae HMG, KPC-2 + TEM-1) was 16 µg/mL. It also gave an MIC (E. cloacae; E. cloacae HPTU (KPC-2 + TEM-1 + SHV-11)) of 1.5 µg/mL, an MIC (E. cloacae; E. cloacae HPTU, KPC-2 + TEM-1 + SHV-11) of 1.5 µg/mL and an MIC (E. cloacae; E. cloacae IR38 (NDM-1 + CTX-M-15)) of 2 µg/mL. The MIC (E. cloacae; E. cloacae IR38, NDM-1 + CTX-M-15) was 2 µg/mL, the MIC (E. cloacae; E. cloacae KAR, VIM-1+ SHV-70) was 0.5 µg/mL and the MIC (E. cloacae; E. cloacae TAW (IMP-8 + SHV-12)) was 0.5 µg/mL. It also gave an MIC (E. cloacae; E. cloacae TAW, IMP-8 + SHV-12) of 0.5 µg/mL, an MIC (E. cloacae; E. cloacae TUR (OXA-48 + SHV-5)) of 0.5 µg/mL and an MIC (E. cloacae; E. cloacae TUR, OXA-48 + SHV-5) of 0.5 µg/mL. It also gave an MIC (E. cloacae; E. cloacae TWA, IMP-8) of 1 µg/mL, an MIC (E. cloacae; strain E. cloacae 10111, TEM-1 + CTX-M-15, non-carbapenemase producer) of 0.094 µg/mL and an MIC (E. cloacae; strain E. cloacae BLA, Overexpressed AmpC, non-carbapenemase producer) of 0.12 µg/mL. The MIC (E. cloacae; strain E. cloacae CLO, CTX-M-15, non-carbapenemase producer) was 0.12 µg/mL, the MIC (E. cloacae; strain E. cloacae CON, Overexpressed AmpC, non-carbapenemase producer) was 0.12 µg/mL and the MIC (E. cloacae; strain E. cloacae CVB, VEB-1, non-carbapenemase producer) was 0.12 µg/mL. It also gave an MIC (E. cloacae; strain E. cloacae HPTU, KPC-2 + TEM-1 + SHV-11) of 1.5 µg/mL, an MIC (E. cloacae; strain E. cloacae TAW, IMP-8 + SHV-12) of 0.5 µg/mL and an MIC (E. cloacae; strain E. cloacae TUR, OXA-48 + SHV-5) of 0.5 µg/mL. For the same compound, the MIC (P. rettgeri; P. rettgeri RAP (OXA-181 + OXA-1)) was 2 µg/mL, the MIC (P. rettgeri; P. rettgeri RAP, OXA-181 + OXA-1) was 2 µg/mL and the MIC (P. rettgeri; strain P. rettgeri RAP, OXA-181 + OXA-1) was 2 µg/mL. The MIC (C. freundii; C. freundii 1003, CTX-M-15 + TEM-1, non-carbapenemase producer) was 0.023 µg/mL, the MIC (C. freundii; C. freundii 7767 (wild type)) was 0.016 µg/mL and the MIC (C. freundii; C. freundii 7767, (wild type), non-carbapenemase producer) was 0.016 µg/mL. The MIC (C. freundii; C. freundii 10107 (TEM-1 + SHV-12)) was 0.023 µg/mL, the MIC (C. freundii; C. freundii 10107, TEM-1 + SHV-12, non-carbapenemase producer) was 0.023 µg/mL and the MIC (C. freundii; C. freundii 10135 (CTX-M-15)) was 0.023 µg/mL. For the same compound, the MIC (C. freundii; C. freundii 10135, CTX-M-15, non-carbapenemase producer) was 0.023 µg/mL, the MIC (C. freundii; C. freundii MAU (Overexpressed AmpC + TEM-3)) was 1 µg/mL and the MIC (C. freundii; C. freundii MAU, Overexpressed AmpC + TEM-3, non-carbapenemase producer) was 1 µg/mL. The MIC (C. freundii; C. freundii STE (NDM-1 + OXA-1 + OXA-9 + OXA-10 + CTX-M-15 + TEM-1)) was >32 µg/mL, the MIC (C. freundii; C. freundii STE, NDM-1 + TEM-1 + CTX-M-15 + VIM-4 + OXA-1 + OXA-9 + OXA-10 + OXA-181) was >32 µg/mL and the MIC (C. freundii; strain C. freundii 10107, TEM-1 + SHV-12, non-carbapenemase producer) was 0.023 µg/mL. For the same compound, the MIC (C. freundii; strain C. freundii 10135, CTX-M-15, non-carbapenemase producer) was 0.023 µg/mL, the MIC (C. freundii; strain C. freundii MAU, Overexpressed AmpC + TEM-3, non-carbapenemase producer) was 1 µg/mL and the MIC (C. koseri; C. koseri ROU, OXA-48) was 0.38 µg/mL. The MIC (C. koseri; C. koseri VER (OXA-48)) was 0.38 µg/mL, the MIC (C. koseri; C. koseri VER, OXA-48) was 0.38 µg/mL and the MIC (C. koseri; strain C. koseri VER, OXA-48) was 0.38 µg/mL. The MIC (E. aerogenes; E. aerogenes 1009, TEM-24, non-carbapenemase producer) was 0.016 µg/mL, the MIC (E. aerogenes; E. aerogenes 1085 (TEM-24)) was 0.023 µg/mL and the MIC (E. aerogenes; E. aerogenes 1085, TEM-24, non-carbapenemase producer) was 0.023 µg/mL. For the same compound, the MIC (E. aerogenes; strain E. aerogenes 1085, TEM-24, non-carbapenemase producer) was 0.023 µg/mL, the MIC (S. typhimurium; S. typhimurium 1081 (CTX-M-1)) was 0.032 µg/mL and the MIC (S. typhimurium; S. typhimurium 1081, CTX-M-1, non-carbapenemase producer) was 0.032 µg/mL. For the same compound, the MIC (S. typhimurium; strain S. typhimurium 1081, CTX-M-1, non-carbapenemase producer) was 0.032 µg/mL, the MIC (enterobacterial isolates; S. marcescens 0911033, IMP-1) was >32 µg/mL and the MIC (enterobacterial isolates; S. marcescens 1008091, VIM-1+ CTX-M-15) was >32 µg/mL. For the same compound, the MIC (enterobacterial isolates; S. marcescens C7052, KPC-2 + TEM-1 + SHV-12) was >32 µg/mL and the MIC (enterobacterial isolates; S. marcescens D6403, KPC-2 + TEM-1) was >32 µg/mL.
